Assay results published in paper PMC6556231 (Journal of medicinal chemistry, 2019).
Entries after “also recorded” stand apart in the source; their conditions may differ.

Columns and labels:
[1] = Human liver microsomal Clint; assay type: in vitro ADME; details: for microsomal CLint: human, HLM Clint (μL/min/mg); for microsomal CLint / HLM Clint: human liver microsomes
Chemical stability = assay type: physicochemical
[2] = test system: Salmonella typhimurium strains; assay: Ames fluctuation assay; assay type: cell-based; details: with and without rat liver S9 fraction
[3] = Preliminary toxicity study in mice; assay type: in vivo; details: 100 mg/kg orally
[4] = Human plasma protein binding; assay type: in vitro ADME; details: equilibrium dialysis, 18 h, 37 °C
Aqueous pH 7.4 = assay type: physicochemical; details: 0.1 M phosphate buffer pH 7.4, 25 °C, 20-24 h
HepG2 cells = assay: Drug toxicity to HepG2 cells; assay type: cell-based, human; details: 48 h, MTT

Cc1cc2c(Nc3cnccn3)ccnc2cc1-c1cnc(N2CCN(C)CC2)nc1 [9a, 6-Methyl-7-(2-(4-methylpiperazin-1-yl)pyrimidin-5-yl)-N-(pyrazin-2-yl)quinolin-4-amine]
microsomal CLint [1]: 130 µL/min/mg

Cc1c(-c2cnc(N3CCN(C)CC3)nc2)ccc2c(Nc3cnccn3)ccnc12 [9b, 8-Methyl-7-(2-(4-methylpiperazin-1-yl)pyrimidin-5-yl)-N-(pyrazin-2-yl)quinolin-4-amine]
microsomal CLint [1]: 120 µL/min/mg

CN1C[C@@H]2C[C@H]1CN2c1ncc(-c2ccc3c(Nc4cnccn4)ccnc3c2)cn1 [10a, 7-(2-((1S,4S)-5-Methyl-2,5-diazabicyclo[2.2.1]heptan-2-yl)pyrimidin-5-yl)-N-(pyrazin-2-yl)quinolin-4-amine]
Increase in metabolic stability compared to 1 [1]: 4 fold

CN1C[C@H]2C[C@@H]1CN2c1ncc(-c2ccc3c(Nc4cnccn4)ccnc3c2)cn1 [10b, 7-(2-((1R,4R)-5-Methyl-2,5-diazabicyclo[2.2.1]heptan-2-yl)pyrimidin-5-yl)-N-(pyrazin-2-yl)quinolin-4-amine]
Increase in metabolic stability compared to 1 [1]: 4 fold

CN1CCN(Nc2ncc(-c3ccc4c(Nc5cnccn5)ccnc4c3)cn2)CC1 [16f, 7-(2-((4-Methylpiperazin-1-yl)amino)pyrimidin-5-yl)-N-(pyrazin-2-yl)quinolin-4-amine]
Increase in metabolic stability compared to 1 [1]: 10 fold | HLM Clint [1]: 16 µL/min/mg

CN1CCCN(c2ncc(-c3ccc4/c(=N/c5cnccn5)ccn(C)c4c3)cn2)CC1 [22a, (E)-1-Methyl-7-(2-(4-methyl-1,4-diazepan-1-yl)pyrimidin-5-yl)-N-(pyrazin-2-yl)quinolin-4(1H)-imine]
Hydrolytic stability (Chemical stability; acidic and basic conditions): hydrolytic stability was confirmed under both acidic and basic conditions | Stability to hard and soft nucleophile (Chemical stability; glutathione and cyanide): stable in the presence of both glutathione and cyanide | Genotoxicity [2]: Neither 22a or its metabolites were found to be genotoxic; also recorded: neither it, nor its metabolites, are genotoxic | microsomal CLint [1]: 22 µL/min/mg | Adverse effects in preliminary toxicity study [3]: no adverse effects

tert-Butyl methyl(2-((4-(4-(pyrazin-2-ylamino)quinolin-7-yl)phenyl)amino)ethyl)carbamate [6c]
HLM Clint [1]: >300 µL/min/mg | Human PPB (%) [4]: 95% | Aq sol (μM) (thermodynamic solubility) (Aqueous pH 7.4): 3.0 µM | HepG2 TC50 (HepG2 cells): 8.0 µM
